What was measured:
Assay in all cases: combination Emax (second highest fraction inhibited in the dose matrix, 72 h); higher = more inhibition; extreme values may be limits of the assay
[1] = test system: C3A (Hepatocellular Carcinoma)
How it was run: (§1)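 After 24 hours at 37°C and 5% CO2 in 1536-well plates, cells in DMEM/F12 or RPMI plus 10% FBS received two-drug dose matrices for 72 hours. Viability came from CellTiter-Glo 2.0 luminescence and was scaled as inhibition, anchored at 0 by vehicle wells and at 1 by blank wells. Combination Emax is taken as the second-highest inhibition in the matrix, and Bliss excess as the observed combination effect less EA + EB − EA·EB, with EA and EB the single-agent effects.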

[2] = test system: CFPAC-1 (Pancreatic Carcinoma)
How it was run: as §1

[3] = test system: DB (B-Cell Non-Hodgkin's Lymphoma)
How it was run: as §1

[4] = test system: DSH1 (Bladder Carcinoma)
How it was run: as §1

[5] = test system: EM-2 (Chronic Myelogenous Leukemia)
How it was run: as §1

[6] = test system: G-292-Clone-A141B1 (Osteosarcoma)
How it was run: as §1

[7] = test system: HCC2157 (Breast Carcinoma)
How it was run: as §1

[8] = test system: JiyoyeP-2003 (Burkitt's Lymphoma)
How it was run: as §1

[9] = test system: KARPAS-1106P (B-Cell Non-Hodgkin's Lymphoma)
How it was run: as §1

[10] = test system: KARPAS-620 (Plasma Cell Myeloma)
How it was run: as §1

[11] = test system: KATOIII (Gastric Carcinoma)
How it was run: as §1

[12] = test system: LU-99A (Non-Small Cell Lung Carcinoma)
How it was run: as §1

[13] = test system: MFH-ino (Other Solid Carcinomas)
How it was run: as §1

[14] = test system: NALM-6 (B-Lymphoblastic Leukemia)
How it was run: as §1

[15] = test system: NCI-H2369 (Mesothelioma)
How it was run: as §1

[16] = test system: RH-1 (Ewing's Sarcoma)
How it was run: as §1

[17] = test system: SK-N-FI (Neuroblastoma)
How it was run: as §1

[18] = test system: SUIT-2 (Pancreatic Carcinoma)
How it was run: as §1

[19] = test system: SW1783 (Low Grade Glioma)
How it was run: as §1

[20] = test system: SW756 (Cervical Carcinoma)
How it was run: as §1

Compound | combination Emax [1] | combination Emax [2] | combination Emax [3] | combination Emax [4] | combination Emax [5] | combination Emax [6] | combination Emax [7] | combination Emax [8] | combination Emax [9] | combination Emax [10] | combination Emax [11] | combination Emax [12] | combination Emax [13] | combination Emax [14] | combination Emax [15] | combination Emax [16] | combination Emax [17] | combination Emax [18] | combination Emax [19] | combination Emax [20]
CS(=O)(=O)CCNCc1ccc(-c2ccc3ncnc(Nc4ccc(OCc5cccc(F)c5)c(Cl)c4)c3c2)o1 [Lapatinib] + C[C@@H](Oc1cc(-c2cnn(C3CCNCC3)c2)cnc1N)c1c(Cl)ccc(F)c1Cl [Crizotinib] (first compound max 10 µM, 7x7, partner max 10 µM) | 0.951 | 0.963 | 0.953 | 1 | 1 | 0.71 | 1 | 0.863 | 0.938 | 0.873 | 0.627 | 0.603 | 0.25 | 0.959 | 0.254 | 0.939 | 0.601 | 0.657 | 0.248 | 0.313
CN(CCO)CC[C@H](CSc1ccccc1)Nc1ccc(S(=O)(=O)NC(=O)c2ccc(N3CCC([C@@H](O)c4ccccc4-c4ccc(Cl)cc4)CC3)cc2)cc1S(=O)(=O)C(F)(F)F [AZD4320] + Cn1cnc2c(F)c(Nc3ccc(Br)cc3Cl)c(C(=O)NOCCO)cc21 [Selumetinib] (first compound max 1 µM, 7x7, partner max 3 µM) | 0.847 | 0.472 | 0.953 | 0.565 | 0.971 | 0.564 | 0.923 | 0.84 | 0.769 | 1 | 0.29 | 0.87 | 0.421 | 0.982 | 0.435 | 0.854 | 0.554 | 0.406 | 0.706 | 0.47
COc1cccc(OCCCN)c1-c1cc(Nc2cnc(C#N)cn2)n[nH]1 [Prexasertib] + CCc1c2c(nc3ccc(O)cc13)-c1cc3c(c(=O)n1C2)COC(=O)[C@]3(O)CC [SN-38] (first compound max 1 µM, 7x7, partner max 0.3 µM) | 0.649 | 0.841 | 0.983 | 0.924 | 0.982 | 0.34 | 1 | 1 | 0.897 | 0.889 | 0.562 | 0.798 | 0.704 | 0.983 | 0.4 | 1 | 0.886 | 0.713 | 0.847 | 0.802
CCc1c2c(nc3ccc(O)cc13)-c1cc3c(c(=O)n1C2)COC(=O)[C@]3(O)CC [SN-38] + CN(C)CCCOc1ccc(-c2ccc3ncc4c(c3c2)n(C2CCOCC2)c(=O)n4C)cn1 [AZD0156] (first compound max 0.3 µM, 7x7, partner max 1 µM) | 0.557 | 0.789 | 0.97 | 0.904 | 0.985 | 0.213 | 0.969 | 0.975 | 0.901 | 0.437 | 0.16 | 0.769 | 0.812 | 1 | 0.32 | 1 | 0.669 | 0.744 | 0.748 | 0.79
CC1(C)CCC(CN2CCN(c3ccc(C(=O)NS(=O)(=O)c4ccc(NCC5CCOCC5)c([N+](=O)[O-])c4)c(Oc4cnc5[nH]ccc5c4)c3)CC2)=C(c2ccc(Cl)cc2)C1 [Venetoclax] + C=CCn1c(=O)c2cnc(Nc3ccc(N4CCN(C)CC4)cc3)nc2n1-c1cccc(C(C)(C)O)n1 [AZD1775] (first compound max 1 µM, partner max 1 µM) | 0.572 | 0.495 | 1 | 0.48 | 0.949 | 0.263 | 0.782 | 0.954 | 0.917 | 0.976 | 0.382 | 0.463 | 0.184 | 1 | 0.27 | 1 | 0.713 | 0.596 | 0.307 | 0.436
CC1(C)CCC(CN2CCN(c3ccc(C(=O)NS(=O)(=O)c4ccc(NCC5CCOCC5)c([N+](=O)[O-])c4)c(Oc4cnc5[nH]ccc5c4)c3)CC2)=C(c2ccc(Cl)cc2)C1 [Venetoclax] + COc1cc(Nc2ncc3c(n2)-c2ccc(Cl)cc2C(c2c(F)cccc2OC)=NC3)ccc1C(=O)O [Alisertib] (first compound max 1 µM, 7x7, partner max 10 µM) | 0.302 | 0.402 | 0.949 | 0.53 | 0.903 | 0.484 | 0.877 | 0.852 | 0.713 | 1 | 0.681 | 0.44 | 0.318 | 0.977 | 0.327 | 1 | 0.666 | 0.106 | 0.634 | 0.273
Cc1c2c(nn1C)CSCc1cc(n(C)n1)CSc1cc(c3ccccc3c1)OCCCc1c(C(=O)O)n(C)c3c-2c(Cl)ccc13 [AZD5991] + CC1(C)CCC(CN2CCN(c3ccc(C(=O)NS(=O)(=O)c4ccc(NCC5CCOCC5)c([N+](=O)[O-])c4)c(Oc4cnc5[nH]ccc5c4)c3)CC2)=C(c2ccc(Cl)cc2)C1 [Venetoclax] (first compound max 1 µM, 7x7, partner max 1 µM) | 0.181 | 0.143 | 1 | 0.964 | 0.975 | 0.184 | 0.985 | 0.732 | 0.935 | 1 | 0.101 | 0.111 | 0.182 | 0.949 | 0.147 | 0.766 | 0.65 | 0.209 | 0.444 | 0.185
Cn1cnc2c(F)c(Nc3ccc(Br)cc3Cl)c(C(=O)NOCCO)cc21 [Selumetinib] + CC(C)n1c(=O)n(C)c2cnc3cc(F)c(-c4ccc(OCCCN5CCCCC5)nc4)cc3c21 [AZD1390] (first compound max 10 µM, 7x7, partner max 0.3 µM) | 0.412 | 0.202 | 0.304 | 0.323 | 0.545 | 0.0339 | 0.238 | 0.191 | 0.0708 | 0.472 | 0.475 | 0.358 | 0.281 | 0.205 | 0.129 | 0.048 | 0.435 | 0.284 | 0.0665 | 0.229
Cc1c2c(nn1C)CSCc1cc(n(C)n1)CSc1cc(c3ccccc3c1)OCCCc1c(C(=O)O)n(C)c3c-2c(Cl)ccc13 [AZD5991] + C[C@@H](Nc1cc(F)cc(F)c1)c1cc(C(=O)N(C)C)cc2c(=O)cc(N3CCOCC3)oc12 [AZD8186] (first compound max 1 µM, 7x7, partner max 3 µM) | 0.292 | 0.294 | 0.974 | 0.582 | 0.259 | 0.415 | 0.987 | 0.718 | 0.997 | 1 | 0.175 | 0.275 | 0.234 | 0.672 | 0.24 | 0.827 | 0.565 | 0.175 | 0.4 | 0.217
NC1(C(=O)N[C@@H](CCO)c2ccc(Cl)cc2)CCN(c2ncnc3[nH]ccc23)CC1 [Capivasertib] + C[C@@H]1COCCN1C2=NC(=NC(=C2)C3(CC3)[S@](=N)(=O)C)C4=C5C=CNC5=NC=C4 [AZD6738] (first compound max 10 µM, 7x7, partner max 10 µM) | 0.551 | 0.567 | 0.424 | 0.848 | 0.973 | 0.538 | 1 | 0.93 | 0.694 | 0.757 | 0.438 | 0.63 | 0.602 | 0.984 | 0.338 | 0.97 | 0.705 | 0.493 | 0.679 | 0.428
Cc1cc2ncnn2cc1Nc1ncc2c(n1)n(C1CCOCC1)c(=O)n2C [AZD7648] + C=CCn1c(=O)c2cnc(Nc3ccc(N4CCN(C)CC4)cc3)nc2n1-c1cccc(C(C)(C)O)n1 [AZD1775] (first compound max 10 µM, partner max 1 µM) | 0.521 | 0.444 | 0.786 | 0.463 | 0.964 | 0.295 | 0.899 | 0.929 | 0.901 | 0.597 | 0.391 | 0.563 | 0.39 | 0.898 | 0.314 | 1 | 0.591 | 0.656 | 0.322 | 0.442
CCN(CCO)CCCOc1ccc2c(Nc3cc(CC(=O)Nc4cccc(F)c4)[nH]n3)ncnc2c1 [AZD2811] + O=C(c1cc(Cc2n[nH]c(=O)c3ccccc23)ccc1F)N1CCN(C(=O)C2CC2)CC1 [Olaparib] (first compound max 1 µM, 7x7, partner max 10 µM) | 0.253 | 0.215 | 0.604 | 0.328 | 0.822 | 0.304 | 0.539 | 0.315 | 0.535 | 0.4 | 0.12 | 0.508 | 0.338 | 0.873 | 0.216 | 0.947 | 0.171 | 0.0755 | 0.201 | 0.0979
